# In PMC8355244, “A fragment-based approach identifies an allosteric pocket that impacts malate dehydrogenase activity” (Communications Biology, 2021):
# Assays:
# [1] = Precipitation / turbidity of compound in assay buffer (600 nm); format: physicochemical; details: activity screening buffer, 500 µM
# Method: 1.3 µL of derivatives of 4-phenylthiazol-2-amine in 100% DMSO were mixed with 237.7 µL of a mastermix of WT PfMDH previously incubated with NAD+. The final compound concentration used in this screening was 500 µM in the presence of 0.5% (v/v) DMSO. The microplate was sealed with silver foil for 1-h incubation at 25–35 °C. Finally, reactions in both the samples and control wells were started upon the addition of 13.0 µL of 5 mM malate). At the end of the experiments, the reaction of the plate was spectrophotometrically assayed at 600 nm in order to identify turbidity due to the low solubility of the compound. All measurements were performed in duplicate.
# [2] = target: T1, PfMDH (Plasmodium falciparum, UniProt Q6VVP7); test: Thermal shift assay (TSA); format: binding
# T1 construct: The full-length WT PfMDH gene was cloned into pETM-13; made in house; host or cells: E. coli Rosetta 2 (DE3) pLysS
# T1 sequence (Q6VVP7 entry or part of it): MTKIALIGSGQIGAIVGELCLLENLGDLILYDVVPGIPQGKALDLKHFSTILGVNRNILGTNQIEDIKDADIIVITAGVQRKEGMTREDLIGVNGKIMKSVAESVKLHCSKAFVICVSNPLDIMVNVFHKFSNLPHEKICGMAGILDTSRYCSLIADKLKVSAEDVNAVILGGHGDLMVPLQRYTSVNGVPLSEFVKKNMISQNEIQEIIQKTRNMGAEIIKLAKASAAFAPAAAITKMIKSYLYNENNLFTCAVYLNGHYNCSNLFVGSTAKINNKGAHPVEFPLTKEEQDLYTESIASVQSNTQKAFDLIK
# Method: The TSA experiment was conducted in a BioRad CSX 96 (Biorad). Each reaction consisted of 1 mM of compound (100 mM stock in 100% (v/v) DMSO) and 10 μM PfMDH in 100 mM Na–phosphate buffer pH 7.4, 400 mM NaCl, and 10× Sypro Orange (Invitrogen) for a total volume of 100 μl. Control experiments were performed with 1% (v/v) DMSO. Inflection points were determined using BioRad CFX96™ control software. Generally, a temperature increase of over 1 °C is interpreted as a result of the stabilization of the protein-ligand interaction. On the contrary, a negative shift is considered a destabilization caused by the fragment.
molecule,measurement,setting,value
CC(C)c1ccc(-c2csc(N)n2)cc1 [compound 10a],precipitation of compound in the buffer,[1],precipitation of compound was observed
4-(3-(trifluoromethyl)phenyl)thiazol-2-amine [compound 8a],ΔTm,[2]; 1 mM compound vs DMSO control,−10 °C
same,Tm,"[2]; 1 mM compound, 10 μM PfMDH, DMSO control Tm 58",48.0 ± 1.0 °C
same,precipitation of compound in the buffer,[1],precipitation of compound was observed
